{
  "source": "patent US6221862A",
  "about": "“Microbicide 1,4,2-dioxazine derivatives” (Bayer Aktiengesellschaft, priority 1997, dated 2001)",
  "key": {"[1]": {"assay": "logP determination by HPLC (EEC Directive 79/831 Annex V. A8)", "type": "physicochemical", "settings": "acetonitrile/0.1% aqueous phosphoric acid, gradient method, acetonitrile/0.1% strength aqueous phosphoric acid", "protocol": "The logP values were determined in accordance with EEC Directive 79/831 Annex V. A8 by HPLC (gradient method, acetonitrile/0.1% strength aqueous phosphoric acid)"}, "[2]": {"test_system": "Leptosphaeria nodorum", "assay": "Leptosphaeria nodorum test (wheat)/curative", "type": "in vivo", "settings": "curative, 250 g/ha, 10 days after inoculation, 0% = control, 100% = no infestation", "protocol": "Leptosphaeria nodorum test (wheat)/curative\nSolvent: 10 parts by weight of N-methyl-pyrrolidone\n(§1) Emulsifier: 0.6 part by weight of alkylaryl polyglycol ether\n(§2) To prepare an appropriate formulation of the active compound, 1 part by weight of active compound is mixed with the stated amounts of solvent and emulsifier, and the concentrate is diluted with water to the desired concentration.\n(§3) To test for curative activity, young plants are sprayed with a conidia suspension of Leptosphaeria nodorum. The plants remain in an incubation cabin at 20° C. and 100% relative atmospheric humidity for 48 hours and are then sprayed with the formulation of the active compound in the stated application amount.\nThe plants are placed in a greenhouse at a temperature of about 15° C. and a relative atmospheric humidity of about 80%.\n(§4) Evaluation is carried out 10 days after the inoculation. In this evaluation, 0% means a degree of action which corresponds to that of the control, while a degree of action of 100% means that no infestation is observed."}, "[3]": {"test_system": "Phytophthora infestans", "type": "in vivo", "settings": "tomato, protective, 100 g/ha, 3 days after inoculation; 0% = control, 100% = no infestation"}, "[4]": {"test_system": "Leptosphaeria nodorum", "assay": "Leptosphaeria nodorum test (wheat)/protective", "type": "in vivo", "settings": "protective, 250 g/ha, 10 days after inoculation, 0% = control, 100% = no infestation", "protocol": "Leptosphaeria nodorum test (wheat)/protective\n(§5) Solvent: 25 parts by weight of N,N-dimethylacetamide\nas §1\n[…] of the active compound, 1 part by weight of active compound is mixed with the stated amounts of solvent and emulsifier, and the concentrate is diluted with water to the desired concentration.\n(§6) To test for protective activity, young plants are sprayed with the formulation of the active compound in the stated application amount. After the spray coating has dried on, the plants are sprayed with a spore suspension of Leptosphaeria nodorum. The plants remain in an incubation cabin at 20° C. and 100% relative atmospheric humidity for 48 hours.\nThe plants are placed in a greenhouse at a temperature of about 15° C. and a relative atmospheric humidity of 80%.\nas §4"}, "[5]": {"test_system": "Pyricularia oryzae", "type": "in vivo", "settings": "rice, protective, 750 g/ha, 4 days after inoculation; 0% = control, 100% = no infestation"}, "[6]": {"test_system": "Puccinia", "assay": "Puccinia test (wheat)/protective", "type": "in vivo", "settings": "protective, 250 g/ha, 10 days after inoculation, 0% = control, 100% = no infestation", "protocol": "Puccinia test (wheat)/protective\nas §5, §1, §2\nas §6, with “the conidia” for “a spore”, “Puccinia.” for “Leptosphaeria nodorum.”\nThe plants are then placed in a greenhouse at a temperature of about 20° C. and a relative atmospheric humidity of 80% in order to promote the development of rust pustules.\nas §4"}, "[7]": {"test_system": "Puccinia recondite", "assay": "Puccinia test (wheat)/curative", "type": "in vivo", "settings": "curative, 250 g/ha, 10 days after inoculation, 0% = control, 100% = no infestation", "protocol": "Puccinia test (wheat)/curative\nSolvent: 10 parts by weight of N,N-dimethylacetamide\nas §1, §2\nas §3, with “Puccinia recondite” for “Leptosphaeria nodorum.”, “hours. The plants” for “hours and”, “the” for “the formulation of the”, “compound formulation” for “compound”\nThe plants are placed in a greenhouse at a temperature of about 20° C. and a relative atmospheric humidity of about 80% in order to promote the development of rust pustules.\nas §4"}, "[8]": {"test_system": "Plasmopara viticola", "assay": "Plasmopara test (vine)/protective", "type": "in vivo", "settings": "protective, 100 g/ha, 6 days after inoculation, 0% = control, 100% = no infestation", "protocol": "Plasmopara test (vine)/protective\nSolvent: 47 parts by weight of acetone\nEmulsifier: 3 parts by weight of alkylaryl polyglycol ether\nas §2\nTo test for protective activity, young plants are sprayed with the formulation of the active compound in the stated application amount. After the spray coating has dried on, the plants are inoculated with an aqueous spore suspension of Plasmopara viticola and then remain in an incubation cabin at about 20° C. and 100% relative atmospheric humidity for 1 day. The plants are then placed in a greenhouse at about 21° C. and about 90% relative atmospheric humidity for 5 days. The plants are then moistened and placed in an incubation cabin for 1 day.\nEvaluation is carried out 6 days after the inoculation. In this evaluation, 0% means a degree of action which corresponds to that of the control, while a degree of action of 100% means that no infestation is observed."}},
  "data": [
    {"smiles": "CON=C(C1=NOCCO1)c1ccccc1CSC(=Nc1ccccc1C(F)(F)F)C1CC1", "note": "[Example 3]", "values": [
      {"measurement": "chromatographic logP", "setting": "[1]", "value": 4.16}
    ]},
    {"smiles": "CON=C(C1=NOCCO1)c1ccccc1CSC(=Nc1ccc(OC)nc1)C1CC1", "note": "[Example 1]", "values": [
      {"measurement": "degree of action", "setting": "[2]", "value": "≥ 95", "unit": "%"},
      {"measurement": "chromatographic logP", "setting": "[1]", "value": 3.04},
      {"measurement": "degree of action", "setting": "[3]", "value": "≥ 90", "unit": "%"},
      {"measurement": "degree of action", "setting": "[4]", "value": "≥ 90", "unit": "%"},
      {"measurement": "degree of action", "setting": "[5]", "value": "≥ 70", "unit": "%"},
      {"measurement": "degree of action", "setting": "[6]", "value": "≥ 90", "unit": "%"},
      {"measurement": "degree of action", "setting": "[7]", "value": "≥ 100", "unit": "%"},
      {"measurement": "degree of action", "setting": "[8]", "value": "≥ 90", "unit": "%"}
    ]},
    {"smiles": "CON=C(C1=NOCCO1)c1ccccc1CSC(=Nc1ccc(OC)cc1)C1CC1", "note": "[Example 2]", "values": [
      {"measurement": "chromatographic logP", "setting": "[1]", "value": 3.16},
      {"measurement": "degree of action", "setting": "[5]", "value": "≥ 70", "unit": "%"}
    ]}
  ]
}
